Test results from the supplement of paper PMC4862054.

The molecules below were run on HDQ-P1 (assay: normalised response (% of control), CellTox Green; higher = less cell death (100 = DMSO, 0 = benzethonium chloride kill control)). Settings: incubation time: 72 h.
Summary of the method: (§1)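 In 384-well plates holding compound at 5 concentrations in 10-fold steps over a 10,000-fold range specific to each compound, breast cancer cell lines were seeded as 20 µl suspension and incubated 72 h. CellTox Green fluorescence was measured at 485/520 nm, after which CellTiter-Glo luminescence was measured following 10 min at room temperature. Plate signals were normalised to 0.1 % DMSO (100) and a positive kill control (0), and each value is the normalised signal at a single concentration.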

Row | Compound | normalised response
1 | O=C(/C=C/c1cccnc1)NCCCCC1CCN(C(=O)c2ccccc2)CC1 [Daporinad] (10 nM) | 105%
2 | Nc1ncn([C@H]2C[C@H](O)[C@@H](CO)O2)c(=O)n1 [Decitabine] (100 nM) | 56.6%
3 | CC[C@@H]1C(=O)N(C)c2cnc(Nc3ccc(C(=O)NC4CCN(C)CC4)cc3OC)nc2N1C1CCCC1 [BI 2536] (10 nM) | 55.5%

The molecules below were run on MCF-10A in the same assay as above. Settings: incubation time: 72 h.
Summary of the method: as §1

Row | Compound | normalised response
4 | O=C(O)C1(C(=O)O)CCC1.[NH2-].[NH2-].[Pt+2] [Carboplatin] (100 nM) | 86.2%
5 | Nc1nc(F)nc2c1ncn2[C@@H]1O[C@H](CO)[C@@H](O)[C@@H]1O [Fludarabine] (100 nM) | 98.4%
6 | CNC(=O)c1cc(Oc2ccc(NC(=O)Nc3cc(C(C)(C)C)nn3-c3ccc4ncccc4c3)c(F)c2)ccn1 [Rebastinib] (10 nM) | 95.4%
7 | COc1cc2c(Oc3ccc4[nH]c(C)cc4c3F)ncnc2cc1OCCCN1CCCC1 [Cediranib] (10 nM) | 88.3%
8 | C=CC(=O)N1CCC[C@@H](n2nc(-c3ccc(Oc4ccccc4)cc3)c3c(N)ncnc32)C1 [Ibrutinib] (10 nM) | 63.2%
9 | O=C(Cc1ccc(-c2ccc(OCCN3CCOCC3)cc2)cn1)NCc1ccccc1 [KX2-391] (100 nM) | 55.3%
10 | O=C(/C=C/c1cccnc1)NCCCCC1CCN(C(=O)c2ccccc2)CC1 [Daporinad] (10 nM) | 96%
11 | Nc1ncn([C@H]2C[C@H](O)[C@@H](CO)O2)c(=O)n1 [Decitabine] (100 nM) | 105%
12 | CC[C@@H]1C(=O)N(C)c2cnc(Nc3ccc(C(=O)NC4CCN(C)CC4)cc3OC)nc2N1C1CCCC1 [BI 2536] (10 nM) | 64.3%

Each molecule was assayed on HCC1143 in the same assay as above. Settings: incubation time: 72 h.
Summary of the method: as §1

Row | Compound | normalised response
13 | O=C(O)C1(C(=O)O)CCC1.[NH2-].[NH2-].[Pt+2] [Carboplatin] (100 nM) | 89.6%
14 | Nc1nc(F)nc2c1ncn2[C@@H]1O[C@H](CO)[C@@H](O)[C@@H]1O [Fludarabine] (100 nM) | 119%
15 | CNC(=O)c1cc(Oc2ccc(NC(=O)Nc3cc(C(C)(C)C)nn3-c3ccc4ncccc4c3)c(F)c2)ccn1 [Rebastinib] (10 nM) | 86.8%
16 | COc1cc2c(Oc3ccc4[nH]c(C)cc4c3F)ncnc2cc1OCCCN1CCCC1 [Cediranib] (10 nM) | 101%
17 | C=CC(=O)N1CCC[C@@H](n2nc(-c3ccc(Oc4ccccc4)cc3)c3c(N)ncnc32)C1 [Ibrutinib] (10 nM) | 114%
18 | O=C(Cc1ccc(-c2ccc(OCCN3CCOCC3)cc2)cn1)NCc1ccccc1 [KX2-391] (100 nM) | 109%
19 | O=C(/C=C/c1cccnc1)NCCCCC1CCN(C(=O)c2ccccc2)CC1 [Daporinad] (10 nM) | 58.3%
20 | Nc1ncn([C@H]2C[C@H](O)[C@@H](CO)O2)c(=O)n1 [Decitabine] (100 nM) | 105%
21 | CC[C@@H]1C(=O)N(C)c2cnc(Nc3ccc(C(=O)NC4CCN(C)CC4)cc3OC)nc2N1C1CCCC1 [BI 2536] (10 nM) | 97.8%

Each molecule was assayed on CAL-148 in the same assay as above. Settings: incubation time: 72 h.
Summary of the method: as §1

Row | Compound | normalised response
22 | O=C(O)C1(C(=O)O)CCC1.[NH2-].[NH2-].[Pt+2] [Carboplatin] (100 nM) | 103%
23 | Nc1nc(F)nc2c1ncn2[C@@H]1O[C@H](CO)[C@@H](O)[C@@H]1O [Fludarabine] (100 nM) | 107%
24 | CNC(=O)c1cc(Oc2ccc(NC(=O)Nc3cc(C(C)(C)C)nn3-c3ccc4ncccc4c3)c(F)c2)ccn1 [Rebastinib] (10 nM) | 84.8%
25 | COc1cc2c(Oc3ccc4[nH]c(C)cc4c3F)ncnc2cc1OCCCN1CCCC1 [Cediranib] (10 nM) | 105%
26 | C=CC(=O)N1CCC[C@@H](n2nc(-c3ccc(Oc4ccccc4)cc3)c3c(N)ncnc32)C1 [Ibrutinib] (10 nM) | 84.5%
27 | O=C(Cc1ccc(-c2ccc(OCCN3CCOCC3)cc2)cn1)NCc1ccccc1 [KX2-391] (100 nM) | 65.5%
28 | O=C(/C=C/c1cccnc1)NCCCCC1CCN(C(=O)c2ccccc2)CC1 [Daporinad] (10 nM) | 96.1%
29 | Nc1ncn([C@H]2C[C@H](O)[C@@H](CO)O2)c(=O)n1 [Decitabine] (100 nM) | 106%

These molecules were tested on Hs578T in the same assay as above. Settings: incubation time: 72 h.
Summary of the method: as §1

Row | Compound | normalised response
30 | O=C(O)C1(C(=O)O)CCC1.[NH2-].[NH2-].[Pt+2] [Carboplatin] (100 nM) | 95.5%
31 | Nc1nc(F)nc2c1ncn2[C@@H]1O[C@H](CO)[C@@H](O)[C@@H]1O [Fludarabine] (100 nM) | 99.5%
32 | CNC(=O)c1cc(Oc2ccc(NC(=O)Nc3cc(C(C)(C)C)nn3-c3ccc4ncccc4c3)c(F)c2)ccn1 [Rebastinib] (10 nM) | 106%
33 | COc1cc2c(Oc3ccc4[nH]c(C)cc4c3F)ncnc2cc1OCCCN1CCCC1 [Cediranib] (10 nM) | 111%
34 | C=CC(=O)N1CCC[C@@H](n2nc(-c3ccc(Oc4ccccc4)cc3)c3c(N)ncnc32)C1 [Ibrutinib] (10 nM) | 93.2%
35 | O=C(Cc1ccc(-c2ccc(OCCN3CCOCC3)cc2)cn1)NCc1ccccc1 [KX2-391] (100 nM) | -25.9%
36 | O=C(/C=C/c1cccnc1)NCCCCC1CCN(C(=O)c2ccccc2)CC1 [Daporinad] (10 nM) | 21.9%
37 | Nc1ncn([C@H]2C[C@H](O)[C@@H](CO)O2)c(=O)n1 [Decitabine] (100 nM) | 109%
38 | CC[C@@H]1C(=O)N(C)c2cnc(Nc3ccc(C(=O)NC4CCN(C)CC4)cc3OC)nc2N1C1CCCC1 [BI 2536] (10 nM) | 89.4%

These molecules were tested on MDA-MB-453 in the same assay as above. Settings: incubation time: 72 h.
Summary of the method: as §1

Row | Compound | normalised response
39 | O=C(O)C1(C(=O)O)CCC1.[NH2-].[NH2-].[Pt+2] [Carboplatin] (100 nM) | 97.6%
40 | Nc1nc(F)nc2c1ncn2[C@@H]1O[C@H](CO)[C@@H](O)[C@@H]1O [Fludarabine] (100 nM) | 108%
41 | CNC(=O)c1cc(Oc2ccc(NC(=O)Nc3cc(C(C)(C)C)nn3-c3ccc4ncccc4c3)c(F)c2)ccn1 [Rebastinib] (10 nM) | 98.2%
